Assay [1] relates to NCI-H716 cells. Description: intracellular cAMP production increasing action in NCI-H716 cells. The class given is cell-based, human. The following applies: bile acid 50 μM, 2 hrs; production amount in TLCA (50 μM) was 100%; Base 11. On the technique in general: Changes in cAMP serve as a functional read-out for many G protein-coupled receptors.
In assay [2] the test system is guinea pig peripheral blood mononuclear cells. The experiment in a line: TNF secretion in LPS-stimulated guinea pig peripheral blood mononuclear cells. The following applies: 16 hrs, bile acid 50 μM; non-addition: 160 with LPS, 13 without. It is filed as cell-based. As to the method:
(§1) The peripheral blood was taken from guinea pig, and mononuclear cell fraction was obtained by a density separation method using Ficoll-Paque PLUS (Amersham Pharmacia). The fraction at a concentration of 1×10^5/well was cultured for 16 hrs in the presence of […] LPS in a 96-well plate upon addition of bile acid or a test compound. The culture supernatant was collected and TNF and IL-6 in the supernatant were quantitated.
The TNF secretion amount in the culture supernatant was measured in the same manner as in Experimental Example 7.

For assay [3] the test system is unchanged. The experiment in a line: IL-6 secretion in LPS-stimulated guinea pig peripheral blood mononuclear cells. The following applies: 16 hrs, bile acid 50 μM; non-addition: 520 with LPS, 32 without. It is filed as cell-based. On the procedure:
as §1
The quantitation of IL-6 in the culture supernatant was performed using IL-6 dependent cell line 7TD1 (RIKEN Institute) with its growth promoting action as an index. First, 7TD1 cells were suspended in a basic medium (RPMI1640 (Invitrogen) supplemented with 1% non-essential amino acid (Invitrogen) and 55 μM 2-mercaptoethanol (Invitrogen)) and seeded in a 96-well plate at a concentration of 2×10^3/well. Immediately after seeding, peripheral blood mononuclear cell culture supernatant diluted with a dilution medium (the above-mentioned basic medium supplemented with 10% FBS) was added and the cells were cultured for 2 days. The IL-6 content was determined by measuring the growth of the 7TD1 cells in the obtained culture product using a CellTiter-Glo (Promega). As the standard sample, human recombinant IL-6 (Genzyme) was used.

For assay [4], the system named is guinea pig intestine primary culture cells. The experiment in a line: GLP-1 secretion from guinea pig intestine primary culture cells. Particulars: bile acid 50 μM, 90 min. It is filed as cell-based. On the procedure: Colon mucous membrane of guinea pig (Hartley, male, Charles River Japan, Inc.) was removed and subjected to an enzyme treatment to give a cell dispersion according to the following method.
(§2) The enzyme solution used was obtained by dissolving 5 mg/ml Collagenase (Sigma), 5 mg/ml Hyaluronidase (Sigma) and 0.5 mg/ml DNaseI (Sigma) in a medium. The medium used was Dulbecco's Modified Eagle Medium (DMEM, Invitrogen) supplemented with 4.5 g/l Glucose, 5% FBS (Invitrogen), 100 units/ml Penicillin (Invitrogen), 100 μg/ml Streptomycin (Invitrogen), 50 μg/ml Gentamicin (Invitrogen) and 20 mM Hepes (pH 7.3). After digestion by the enzyme solution at 37° C., the tissue sections were prepared into dispersed cells by passing through a pipette 4 times and the cells were collected. The collected cells were washed with a buffer (incubation buffer) obtained by adding 5.5 mM Glucose and 0.1% BSA to a modified Krebs-Ringer bicarbonate buffer (KRBH, 116 mM NaCl, 4.7 mM KCl, 1.2 mM KH2PO4, 1.2 MM MgSO4, 2.5 mM CaCl2, 25 mM NaHCO3, 24 mM HEPES, pH 7.3), and preincubated at 37° C. under 5% CO2 for 30 min. 0.1 μM Phorbol ester (Wako), 1% DPPIV inhibitor (Linco) and a test compound were added to the above-mentioned incubation buffer, and the obtained buffer was added to the cells after the aforementioned preincubation and incubated for 90 min. The culture supernatant was collected and cryopreserved. The concentration of GLP-1 released in the culture supernatant was measured using an ELISA kit (Linco).

Assay [5] relates to rat intestine primary culture cells. The experiment in a line: GLP-1 secretion from rat intestine primary culture cells. It is filed as cell-based. Particulars: bile acid 100 μM, 150 min. As to the method: Terminal ileum and colon mucous membrane were removed from rat (Wistar, male, Charles River Japan, Inc.) and subjected to an enzyme treatment to give a cell dispersion according to the following method.
as §2, with “pipette 7” for “pipette 4”, “1.2 mM” for “1.2 MM”, “for 150” for “for 90”

For the compound `C[C@H](CCC(=O)NCCS(=O)(=O)O)[C@H]1CC[C@H]2[C@@H]3CC[C@@H]4C[C@H](O)CC[C@]4(C)[C@H]3CC[C@]12C` [TLCA, taurolithocholic acid, reference compound], in assay [1], the “cAMP production increasing activity (%)” value is recorded as 100%. Also, the “TNF α” value in assay [2] was found to be 60 pg/mL. The “IL-6” value in assay [3] stood at 260 pg/mL. The entries for the “GLP-1 (% relative to non-addition)” value in assay [4] and in assay [5] were 400 % relative to non-addition and 290 % relative to non-addition, respectively.

Source of the values: patent publication US7625887B2, “Receptor agonists” (Takeda Pharmaceutical Company Limited, priority 2003, dated 2009).
